Earlier results, collected in patent publication US20250339568A1, “PRECURSOR AND RADIOTRACER FOR NEUROENDOCRINE THERANOSTICS” (ITM Oncologics GmbH, priority 2021, published 2025).

Molecular target: T1, HEK293-SSR2 tumour cells (Homo sapiens, UniProt P30874)
T1 construct: host or cells: HEK293-SSR2 tumour cells
Settings: reference example of EP 2 801 582 A1, Table 12

T1 sequence (P30874 whole entry): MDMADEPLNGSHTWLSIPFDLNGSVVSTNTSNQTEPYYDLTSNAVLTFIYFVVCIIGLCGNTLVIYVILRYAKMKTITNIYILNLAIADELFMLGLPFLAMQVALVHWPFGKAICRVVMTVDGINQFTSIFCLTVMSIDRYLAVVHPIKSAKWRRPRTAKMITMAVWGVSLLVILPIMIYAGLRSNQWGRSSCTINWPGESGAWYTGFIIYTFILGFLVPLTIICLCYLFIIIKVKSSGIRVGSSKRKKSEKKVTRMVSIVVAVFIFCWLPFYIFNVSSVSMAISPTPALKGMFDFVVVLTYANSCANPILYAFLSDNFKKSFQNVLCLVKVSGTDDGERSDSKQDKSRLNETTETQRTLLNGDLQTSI

Substance: DOTA-Cpa-cyclo[DCys-Pal-DAph(Cbm)-Lys-Thr-Cys]DTyr-NH2
- uptake in HEK293-SSR2 tumour cells: without quantifiable uptake
